Where only a bound is given, the exact number is not on record here.

Broadly, the IC50 is the concentration at which inhibition is half-maximal.

The assay concerns the target LSD-1 enzyme (Homo sapiens (Human), UniProt O60341). In words: LANCE LSD1/KDM1A demethylase assay (LSD1 histone demethylase biochemical assay). The note with it: 1 nM LSD-1 enzyme, 1 hour preincubation at 25° C., 0.4 μM Biotin-labeled Histone H3 peptide substrate. On the technique in general: In TR-FRET formats the signal depends on donor and acceptor labels being close together.
`CN(C)C1CCN(c2nc(-c3ccc(C#N)cc3)c(-c3cnn(C4CCC4)c3)n3cncc23)CC1` [Example 139, 4-{5-(1-cyclobutyl-1H-pyrazol-4-yl)-8-[4-(dimethylamino)piperidin-1-yl]imidazo[1,5-a]pyrazin-6-yl}benzonitrile]: the IC50 is not above 50 nM.

Take `Cc1ncc(-c2c(-c3ccc(C#N)cc3)nc(N3CCC(N(C)C)CC3)c3cncn23)cc1CO` [Example 142, 4-{8-[4-(dimethylamino)piperidin-1-yl]-5-[5-(hydroxymethyl)-6-methylpyridin-3-yl]imidazo[1,5-a]pyrazin-6-yl}benzonitrile]: the IC50 is not above 50 nM.

Compound `CN(C)C1CCN(c2nc(-c3ccc(C#N)cc3)c(-c3ccc4c(c3)nc(C(F)F)n4C)n3cncc23)CC1` [Example 143, 4-{5-[2-(difluoromethyl)-1-methyl-1H-benzimidazol-5-yl]-8-[4-(dimethylamino)piperidin-1-yl]imidazo[1,5-a]pyrazin-6-yl}benzonitrile] gave an IC50 not above 50 nM.

In turn, `CN(C)C1CCN(c2nc(-c3ccc(C#N)cc3)c(-c3cnc4ccccc4c3)n3cncc23)CC1` [Example 144, 4-{8-[4-(dimethylamino)piperidin-1-yl]-5-quinolin-3-ylimidazo[1,5-a]pyrazin-6-yl}benzonitrile] yielded an IC50 not above 50 nM.

`CN(C)C1CCN(c2nc(-c3ccc(C#N)cc3)c(-c3ccc4ncccc4c3)n3cncc23)CC1` [Example 145, 4-{8-[4-(dimethylamino)piperidin-1-yl]-5-quinolin-6-ylimidazo[1,5-a]pyrazin-6-yl}benzonitrile] registered an IC50 not above 50 nM.

`COc1ncc(-c2c(-c3ccc(C#N)cc3)nc(N3CCC(N(C)C)CC3)c3cncn23)cc1C#N` [Example 148, 5-{6-(4-cyanophenyl)-8-[4-(dimethylamino)piperidin-1-yl]imidazo[1,5-a]pyrazin-5-yl}-2-methoxynicotinonitrile] showed an IC50 not above 50 nM.

For the compound `Cc1cc(-c2c(-c3ccc(C#N)cc3)nc(N3CCC(N(C)C)CC3)c3cncn23)ccc1CO` [Example 149, 4-{8-[4-(dimethylamino)piperidin-1-yl]-5-[4-(hydroxymethyl)-3-methylphenyl]imidazo[1,5-a]pyrazin-6-yl}benzonitrile], the concentration for half-maximal inhibition (IC50) is not above 50 nM.

On to `Cc1nc2cc(-c3c(-c4ccc(C#N)cc4)cc(OC[C@@H]4CCCN(C)C4)c4cncn34)ccc2n1C` [Example 153, 4-(5-(1,2-dimethyl-1H-benzimidazol-5-yl)-8-{[(3R)-1-methylpiperidin-3-yl]methoxy}imidazo[1,5-a]pyridin-6-yl)benzonitrile], for which the IC50 is not above 50 nM.

These data come from patent US10047086B2, “Imidazopyridines and imidazopyrazines as LSD1 inhibitors” (Incyte Corporation, priority 2014, dated 2018).
